Results reported in US20250346582A1, “SPLEEN TYROSINE KINASE INHIBITORS AND METHODS OF USE THEREOF” (THE BOARD OF TRUSTEES OF THE UNIVERSITY OF ILLINOIS, priority 2022, published 2025).

Key:
[1] = molecular target: T1, BLNK-SH2 (Homo sapiens, UniProt Q8WV28); assay: Fluorescence quenching vesicle binding assay, BLNK-SH2; details: Table 4; POPC/POPS/PIP3/dabsyl-PE (67:20:3:10) vesicles (40 μM); read-out: Imax (%)
T1 construct: All SH2 domain constructs were cloned into the pRSET-B vector; polyhistidine (N); made in house; host or cells: Escherichia coli BL21 (DE3) pLysS
T1 sequence (Q8WV28 346-453 limits assumed): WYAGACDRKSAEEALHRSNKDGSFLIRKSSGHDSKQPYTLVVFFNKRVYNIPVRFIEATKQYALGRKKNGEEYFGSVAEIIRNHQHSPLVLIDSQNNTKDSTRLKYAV
Procedure: (§1) The membrane-binding assay is based on fluorescence quenching of EGFP fused to a SH2 domain by a dark quencher containing lipid, dabsyl-PE, incorporated in lipid vesicles. The plate reader assay was performed using the Synergy™ Neo spectrofluorometer at 25° C. Nontreated black polystyrene 96-well plates (Corning) were used. Protein (10-50 nM) with the increasing concentration of vesicles with a given lipid composition in 20 mM Tris buffer, pH 7.4, containing 0.16 M NaCl was added to each row of wells and the EGFP fluorescence emission at 516 nm was measured with excitation set at 485 nm. Z′ factor for the assay system was determined as described^74. Imax and IC50 values of inhibitors were determined using the equation, I=Imax/(1+IC50/[I]) where I and [I] indicate % inhibition and inhibitor concentration, respectively. The average and standard deviation values were obtained from triplicate determinations.
We also optimized a recently developed fluorescence quenching-based lipid-binding assay^47 for high-throughput screening of these molecules for their inhibitory activity against the PIP3-SH2 interaction. Specifically, we expressed SH2 domains as EGFP-tagged proteins and directly quantified their membrane binding by monitoring the quenching of EGFP fluorescence emission intensity by a dark quencher-containing lipid, N-dimethylaminoazo-benzenesulfonyl-phosphatidylethanolamine (dabsyl-PE), incorporated in the vesicles. We then screened for compounds that inhibited binding of Syk-cSH2, BLNK-SH2, and PLCγ2-cSH2, respectively, to 1-palmitoyl-2-oleoyl-PC (POPC)/1-palmitoyl-2-oleoyl-PS (POPS)/PIP3/dabsyl-PE (67:20:3:10) vesicles while eliminating those that inhibit their non-specific binding to anionic POPC/POPS/dabsyl-PE (70:20:10) vesicles. The quality of the screening system was evaluated using 1% dimethylsulfoxide (DMSO) and 20 μM D-myo-inositol-1,3,4,5-tetraphosphate (IP4) as negative and positive controls, respectively. The clear separation of positive and negative control data and the average Z′-factor of 0.7 supported the robustness of our system for high-throughput screen of PIP3-SH2 interaction inhibitors.

[2] = tested on: MV4-11 cells; assay: XTT cell proliferation assay, MV4-11 cells; type: cell-based
Procedure: MV4-11 or HL-60 cells were seeded into a clear-bottom 96-well plate containing varying concentrations of inhibitors in the optimal growth media described above and the mixtures were incubated for 16 h. Cells were then treated with a mixture of XTT-labeling reagents and the electron coupling reagents according to the manufacturer's protocol (Roche). After 4 h, the absorbance values at 475 nm and at 660 nm were simultaneously measured by Synergy™ Neo spectrofluorometer at 25° C. Cells with the growth media was used for background correction.

[3] = tested on: MV4-11 cells; assay: Generation of drug-resistant MV4-11 cells under chronic treatment; type: cell-based; details: inhibitor increased from 0.5 to 5 μM over 10 weeks
Procedure: Then the concentration was maintained at 5 μM.

[4] = molecular target: T2, scaffolding function of Syk (Homo sapiens, UniProt P43405); assay: Co-immunoprecipitation with Syk, entospletinib-resistant MV4-11 cells; type: cell-based; details: 5 μM
T2 construct: host or cells: MV4-11 AML cells (naive and entospletinib-resistant)
Procedure: (§2) MV-4-11 cells were collected by centrifugation, washed twice with phosphate phosphate-buffered saline (PBS) and resuspended in the immunoprecipitation (IP) buffer (50 mM HEPES, pH 7.4, 150 mM NaCl, 1 mM MgCl2, 1 mM EGTA, and 0.25 mM GTP) with 0.2-0.5% Triton X-100 and a protease inhibitor mix (Sigma-Aldrich). Lysates were prepared after 5 min of incubation on ice by repeated pipetting and centrifugation for 10 min at 12,000 g and at 4° C. For immunoprecipitation, the SYK-specific antibody was immobilized onto 100 μl Dynabeads/protein A (ThermoFisher) and the excess antibody was washed away by placing the tube in a DynaMag magnet and removing the supernatant. The resuspended beads were then incubated with the cell extract supernatant containing 500 μg of proteins for 1 h at 4° C. The immunoprecipitates were rinsed three times with the IP buffer and eluted with 30 μl of the sample buffer containing sodium dodecyl sulfate (SDS). For detection of proteins in total extracts (i.e., Input), 30 μg of the sample was loaded in each gel lane for western blot analysis.

[5] = molecular target: T2, scaffolding function of Syk; assay: Co-immunoprecipitation with Syk, naïve MV4-11 cells; type: cell-based; details: 5 μM
Procedure: as §2

[6] = molecular target: T3, Syk-cSH2 E164Q (Homo sapiens, UniProt P43405, E164Q); assay: Fluorescence quenching vesicle binding assay, Syk-cSH2 E164Q mutant; details: POPC/POPS/PIP3/dabsyl-PE vesicles
T3 construct: polyhistidine (N); made in house; host or cells: Escherichia coli BL21 (DE3) pLysS
Procedure: as §1

[7] = molecular target: T4, Syk (Homo sapiens, UniProt P43405); assay: Streptavidin pull down assay with WC36B in MV4-11 cells; type: cell-based; details: WC36B-streptavidin pull down
T4 construct: host or cells: MV4-11 AML cells (naive and entospletinib-resistant)
Procedure: Streptavidin-coated beads (Dynabeads™ M280 streptavidin beads; ThermoFisher) were washed twice with 1 ml of PBST (PBS+0.1% Tween 20) and resuspended in 100 μl of PBST. WC36B (or biotin) (10 mM) was added to 100 μl of the bead suspension and the mixture was incubated at room temperature for 15 min with gentle shaking. The mixture was then vortexed for 5 s and the tube was placed on a magnet for 1 min. After discarding the supernatant, the beads were resuspended in the same volume of the washing buffer. Washing is repeated three times to remove excess WC36B. WC36B-coated beads were then incubated with the cell lysate (MV-4-11) for 30 min at room temperature with gentle shaking. Protein-coated beads were separated with a magnet for 2-3 min and washed 4-5 times with PBS containing 0.1% BSA. The protein was then removed from the beads by boiling the beads in the SDS-polyacrylamide gel electrophoresis (PAGE) application buffer. Samples were concentrated for the mass spectrometry analysis and the western blot assay.

In the case of `[N-]=[N+]=C(C(=O)OC1CCCCC1)C(Nc1ncccn1)c1ccco1` (racemic) [WC35, Cyclohexyl 2-diazo-3-(furan-2-yl)-3-(pyrimidin-2-ylamino)propanoate], the Emax [1] is reported as less than 10% and the “inhibition of cell proliferation (XTT assay)” value [2] is reported as “modestly more active than WC38 and entospletinib”.
For `[N-]=[N+]=C(C(=O)OC1CCCCC1)C(Nc1ncccn1)c1c[nH]c2ccccc12` (racemic) [WC36, Cyclohexyl 2-diazo-3-(1H-indol-3-yl)-3-(pyrimidin-2-ylamino)propanoate], the Emax [1] was less than 10%, the “inhibition of cell proliferation (XTT assay)” value [2] was “modestly more active than WC38 and entospletinib” and the “development of acquired resistance” value [3] was “could not develop resistance to WC36”. For the same compound, the “suppression of co-precipitation with Syk” value [4] was “greatly suppressed co-precipitation”, the “suppression of the scaffolding function of Syk (co-precipitation)” value [5] was “greatly suppressed the scaffolding function of Syk” and the “inhibition of membrane binding of Syk-cSH2 E164Q” value [6] was “refractory to WC36 inhibition”. The “competition with WC36B for Syk binding” value [7] was “able to compete with WC36B for Syk binding”.
`[N-]=[N+]=C(C(=O)OC1CCCCC1)C(Nc1ncccn1)c1ccc[nH]1` (racemic) [WC38, Cyclohexyl 2-diazo-3-(pyrimidin-2-ylamino)-3-(1H-pyrrol-2-yl)propanoate] was tested, and the Emax [1] was less than 10%.
